Target: ATX (human His-tagged) (Homo sapiens (Human), UniProt Q13822)
Test: Human ATX enzyme inhibition assay (fluorescence quenching, MR121 substrate)
Format: biochemical
Details: not given
Method: Human Atx Enzyme Inhibition Assay
Assay working solutions were made as follows:
Assay buffer (50 mM Tris-HCl, 140 mM NaCl, 5 mM KCl, 1 mM CaCl2, 1 mM MgCl2, 0.01% Triton-X-100, pH 8.0;
MR121 substrate solution: MR121 substrate stock solution (800 μM MR121 substrate in DMSO), diluted to 2-5× final concentration in assay buffer.
10 μL of MR121 substrate solution was added ([…] final concentration), mixed 30 times and then incubated for 15 minutes at 30° C.

Row | IC50 | SMILES
1 | 10 nM | O=C(c1cc(OCC2CCOCC2)nc(C2CC2)c1)N1CC2=C(CC(C(=O)N3CCc4[nH]nnc4C3)C2)C1 [Example 4.01, [2-cyclopropyl-6-(oxan-4-ylmethoxy)pyridin-4-yl]-[5-(1,4,6,7-tetrahydrotriazolo[4,5-c]pyridine-5-carbonyl)-3,4,5,6-tetrahydro-1H-cyclopenta[c]pyrrol-2-yl]methanone]

Same assay, conditions: 30 nM ATX, MR121 substrate, 30° C., pH 8.0; read-out: ATX IC50

Row | SMILES | IC50
2 | O=C(c1cc(OCC2CCOCC2)nc(C2CC2)c1)N1CC2=C(C1)CN(C(=O)N1CCc3[nH]nnc3C1)C2 [Example 2.02, [2-cyclopropyl-6-(oxan-4-ylmethoxy)pyridin-4-yl]-[5-(1,4,6,7-tetrahydrotriazolo[4,5-c]pyridine-5-carbonyl)-1,3,4,6-tetrahydropyrrolo[3,4-c]pyrrol-2-yl]methanone] | 6 nM
3 | O=C(c1cc(OCC2CCOCC2)nc(C2CC2)c1)N1CC2=C(C1)CN(C(=O)N1CCc3c(n[nH]c3O)C1)C2 [Example 2.12, [2-cyclopropyl-6-(oxan-4-ylmethoxy)pyridin-4-yl]-[5-(3-hydroxy-2,4,5,7-tetrahydropyrazolo[3,4-c]pyridine-6-carbonyl)-1,3,4,6-tetrahydropyrrolo[3,4-c]pyrrol-2-yl]methanone] | 441 nM
4 | NS(=O)(=O)C1CCN(C(=O)C2CC3=C(C2)CN(C(=O)c2cc(OCC4CCOCC4)nc(C4CC4)c2)C3)CC1 [Example 4.00, 1-[2-[2-Cyclopropyl-6-(oxan-4-ylmethoxy)pyridine-4-carbonyl]-3,4,5,6-tetrahydro-1H-cyclopenta[c]pyrrole-5-carbonyl]piperidine-4-sulfonamide] | 11 nM
5 | O=C1NS(=O)(=O)c2cc(C(=O)N3CC4=C(CN(C(=O)c5cc(OCC6CCOCC6)nc(C6CC6)c5)C4)C3)ccc21 [Example 1.10, 6-[5-[2-cyclopropyl-6-(oxan-4-ylmethoxy)pyridine-4-carbonyl]-1,3,4,6-tetrahydropyrrolo[3,4-c]pyrrole-2-carbonyl]-1,1-dioxo-1,2-benzothiazol-3-one] | 13 nM
6 | O=C(c1cc(OCC2CCOCC2)nc(C2CC2)c1)N1CC2=C(CN(Cc3ccc4[nH]c(=O)oc4c3)C2)C1 [Example 5.00, 6-[[5-[2-Cyclopropyl-6-(oxan-4-ylmethoxy)pyridine-4-carbonyl]-1,3,4,6-tetrahydropyrrolo[3,4-c]pyrrol-2-yl]methyl]-3H-1,3-benzoxazol-2-one] | 1 nM
7 | O=C(c1cc(OCC2CCOCC2)nc(C2CC2)c1)N1CC2=C(C1)CN(C(=O)N1CCc3c(cn[nH]c3=O)C1)C2 [Example 2.08, 6-[2-[2-cyclopropyl-6-(oxan-4-ylmethoxy)pyridine-4-carbonyl]-1,3,4,6-tetrahydropyrrolo[3,4-c]pyrrole-5-carbonyl]-2,5,7,8-tetrahydropyrido[3,4-d]pyridazin-1-one] | 10 nM
8 | O=C1NC(=O)N2CCN(C(=O)N3CC4=C(CN(C(=O)c5cc(OCC6CCOCC6)nc(C6CC6)c5)C4)C3)CC12 (centres unmarked) [Example 2.14, 7-[2-[2-cyclopropyl-6-(oxan-4-ylmethoxy)pyridine-4-carbonyl]-1,3,4,6-tetrahydropyrrolo[3,4-c]pyrrole-5-carbonyl]-5,6,8,8a-tetrahydroimidazo[1,5-a]pyrazine-1,3-dione] | 122 nM
9 | Cc1nnn(Cc2cc(C(F)(F)F)ccc2CCC(=O)N2CC3=C(C2)CN(C(=O)c2ccc4[nH]nnc4c2)C3)n1 [Example 1.06, 1-[5-(1H-benzotriazole-5-carbonyl)-1,3,4,6-tetrahydropyrrolo[3,4-c]pyrrol-2-yl]-3-[2-[(5-methyltetrazol-2-yl)methyl]-4-(trifluoromethyl)phenyl]propan-1-one] | 11 nM
10 | NS(=O)(=O)C1CCN(C(=O)N2CC3=C(CN(C(=O)c4cc(OCC5CCOCC5)nc(C5CC5)c4)C3)C2)CC1 [Example 2.04, 1-[2-[2-cyclopropyl-6-(oxan-4-ylmethoxy)pyridine-4-carbonyl]-1,3,4,6-tetrahydropyrrolo[3,4-c]pyrrole-5-carbonyl]piperidine-4-sulfonamide] | 5.5 nM
11 | CC(C)(C)C(=O)Nc1cc(C(F)(F)F)cnc1COC(=O)N1CC2=C(C1)CN(C(=O)c1ccc3[nH]nnc3c1)C2 [Example 1.04, [3-(2,2-dimethylpropanoylamino)-5-(trifluoromethyl)pyridin-2-yl]methyl 2-(1H-benzotriazole-5-carbonyl)-1,3,4,6-tetrahydropyrrolo[3,4-c]pyrrole-5-carboxylate] | 8 nM
12 | O=C(c1cc(OCC2CCOCC2)nc(C2CC2)c1)N1CC2=C(C1)CN(C(=O)[C@@H]1CCc3[nH]nnc3C1)C2 [Example 1.02, [2-cyclopropyl-6-(oxan-4-ylmethoxy)pyridin-4-yl]-[5-[(5R)-4,5,6,7-tetrahydro-1H-benzotriazole-5-carbonyl]-1,3,4,6-tetrahydropyrrolo[3,4-c]pyrrol-2-yl]methanone] | 5 nM
13 | O=C(OCc1c[nH]nn1)N1CC2=C(C1)CN(C(=O)c1cc(OCC3CCOCC3)nc(C3CC3)c1)C2 [Example 3.00, (1H-1,2,3-Triazol-4-yl)methyl 5-(2-cyclopropyl-6-((tetrahydro-2H-pyran-4-yl)methoxy)isonicotinoyl)-3,4,5,6-tetrahydropyrrolo[3,4-c]pyrrole-2(1H)-carboxylate] | 36 nM
14 | CC(C)(C)C(=O)Nc1cc(C(F)(F)F)cnc1COC(=O)N1CC2=C(C1)CN(C(=O)[C@@H]1CCc3[nH]nnc3C1)C2 [Example 1.00, [3-(2,2-Dimethylpropanoylamino)-5-(trifluoromethyl)pyridin-2-yl]methyl 2-[(5R)-4,5,6,7-tetrahydro-1H-benzotriazole-5-carbonyl]-1,3,4,6-tetrahydropyrrolo[3,4-c]pyrrole-5-carboxylate] | 7 nM
15 | CC(C)(C)C(=O)Nc1cc(Cl)c(Cl)nc1COC(=O)N1CC2=C(C1)CN(C(=O)c1ccc3[nH]nnc3c1)C2 [Example 1.08, [5,6-dichloro-3-(2,2-dimethylpropanoylamino)pyridin-2-yl]methyl 2-(1H-benzotriazole-5-carbonyl)-1,3,4,6-tetrahydropyrrolo[3,4-c]pyrrole-5-carboxylate] | 7 nM
16 | O=C(c1cc(OCC2CCOCC2)nc(C2CC2)c1)N1CC2=C(C1)CN(C(=O)N1CCc3onc(O)c3C1)C2 [Example 2.13, [2-cyclopropyl-6-(oxan-4-ylmethoxy)pyridin-4-yl]-[5-(3-hydroxy-6,7-dihydro-4H-[1,2]oxazolo[4,5-c]pyridine-5-carbonyl)-1,3,4,6-tetrahydropyrrolo[3,4-c]pyrrol-2-yl]methanone] | 97 nM
17 | O=C(c1cc(OCC2CCOCC2)nc(C2CC2)c1)N1CC2=C(C1)CN(C(=O)c1ccc3c(O)noc3c1)C2 [Example 1.09, [5-[2-cyclopropyl-6-(oxan-4-ylmethoxy)pyridine-4-carbonyl]-1,3,4,6-tetrahydropyrrolo[3,4-c]pyrrol-2-yl]-(3-hydroxy-1,2-benzoxazol-6-yl)methanone] | 4 nM

Now from value to compound:

Row | IC50 | SMILES
18 | 3 nM | NS(=O)(=O)C1(F)CCN(C(=O)N2CC3=C(CN(C(=O)c4cc(OCC5CCOCC5)nc(C5CC5)c4)C3)C2)CC1 [Example 6.00, 1-[2-[2-Cyclopropyl-6-(oxan-4-ylmethoxy)pyridine-4-carbonyl]-1,3,4,6-tetrahydropyrrolo[3,4-c]pyrrole-5-carbonyl]-4-fluoropiperidine-4-sulfonamide]
19 | 17 nM | CC(C)(C)C(=O)Nc1cc(C(F)(F)F)cnc1COC(=O)N1CCC2=C(CCN(C(=O)c3ccc4[nH]nnc4c3)C2)C1 [Example 1.07, [3-(2,2-dimethylpropanoylamino)-5-(trifluoromethyl)pyridin-2-yl]methyl 6-(1H-benzotriazole-5-carbonyl)-1,3,4,5,7,8-hexahydro-2,6-naphthyridine-2-carboxylate]
20 | 5 nM | O=C(c1cc(OCC2CCOCC2)nc(C2CC2)c1)N1CC2=C(C1)CN(C(=O)c1ccc3[nH]nnc3c1)C2 [Example 1.03]
21 | 5 nM | CC(C)(C)C(=O)Nc1cc(C(F)(F)F)cnc1COC(=O)N1CC2=C(C1)CN(C(=O)N1CCc3[nH]nnc3C1)C2 [Example 2.00, [3-(2,2-Dimethylpropanoylamino)-5-(trifluoromethyl)pyridin-2-yl]methyl 2-(1,4,6,7-tetrahydrotriazolo[4,5-c]pyridine-5-carbonyl)-1,3,4,6-tetrahydropyrrolo[3,4-c]pyrrole-5-carboxylate]
22 | 3 nM | O=C(OCc1ccc(OC(F)(F)F)cc1)N1CC2=C(C1)CN(C(=O)c1ccc3[nH]nnc3c1)C2 [Example 1.05, 4-(trifluoromethoxy)benzyl 5-(1H-benzo[d][1,2,3]triazole-5-carbonyl)-3,4,5,6-tetrahydropyrrolo[3,4-c]pyrrole-2(1H)-carboxylate]
23 | 8 nM | Cn1c(=O)[nH]c2ccc(C(=O)N3CC4=C(CN(C(=O)c5cc(OCC6CCOCC6)nc(C6CC6)c5)C4)C3)cc21 [Example 1.01, 6-(5-(2-cyclopropyl-6-((tetrahydro-2H-pyran-4-yl)methoxy)isonicotinoyl)-1,2,3,4,5,6-hexahydropyrrolo[3,4-c]pyrrole-2-carbonyl)-1-methyl-1H-benzo[d]imidazol-2(3H)-one]
